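96-well plates; 48 h exposure; 5 concentrations. Endpoints by linear interpolation between flanking doses. Not reached: highest tested concentration assigned. At the GI50, growth is halved. The concentration for full growth arrest is given as TGI.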
Columns and labels:
Test in all cases: growth of human tumour cells (NCI), 48 h
HOP-62 NSCLC = system: HOP-62 NSCLC
MALME-3M melanoma = system: MALME-3M melanoma
RPMI-8226 leukemia = system: RPMI-8226 leukemia
SK-MEL-28 melanoma = system: SK-MEL-28 melanoma
SW-620 colon = system: SW-620 colon
TK-10 renal = system: TK-10 renal
UO-31 renal = system: UO-31 renal
SN12C renal = system: SN12C renal

CCCc1cc(=O)n2c(C(=O)Nc3ccc(F)cc3)c(C(=O)Nc3ccc(F)cc3)sc2n1
GI50 (HOP-62 NSCLC): 2.29 µM
TGI (HOP-62 NSCLC): 33.2 µM
GI50 (MALME-3M melanoma): 36 µM
TGI (MALME-3M melanoma): 91.3 µM
GI50 (RPMI-8226 leukemia): 23.9 µM
TGI (RPMI-8226 leukemia): 93.6 µM
GI50 (SK-MEL-28 melanoma): 56.5 µM
TGI (SK-MEL-28 melanoma): > 160 µM
GI50 (SW-620 colon): 56.5 µM
TGI (SW-620 colon): > 160 µM
GI50 (TK-10 renal): 32.3 µM
TGI (TK-10 renal): 74.7 µM
GI50 (UO-31 renal): 27.6 µM
TGI (UO-31 renal): 101 µM

Clc1ccc(-c2c3ccc(=[N+]4CCCCC4)cc-3oc3cc(N4CCCCC4)ccc23)cc1
GI50 (HOP-62 NSCLC): 0.0635 µM
TGI (HOP-62 NSCLC): 0.202 µM
GI50 (TK-10 renal): 0.129 µM
TGI (TK-10 renal): 0.345 µM

c1ccc(OCCC[P+](c2ccccc2)(c2ccccc2)c2ccccc2)cc1
GI50 (HOP-62 NSCLC): 4.55 µM
TGI (HOP-62 NSCLC): 42.8 µM
GI50 (RPMI-8226 leukemia): 0.303 µM
TGI (RPMI-8226 leukemia): 3.66 µM
GI50 (SK-MEL-28 melanoma): 1.09 µM
TGI (SK-MEL-28 melanoma): 13.4 µM
GI50 (SN12C renal): 2.61 µM
TGI (SN12C renal): 12.5 µM
GI50 (SW-620 colon): 2.22 µM
TGI (SW-620 colon): > 100 µM
GI50 (UO-31 renal): 13.9 µM
TGI (UO-31 renal): 36.6 µM

CCCCCCCCCCCCC(O)c1ccco1 (centres undefined)
GI50 (HOP-62 NSCLC): 20.6 µM
TGI (HOP-62 NSCLC): 36.8 µM
GI50 (RPMI-8226 leukemia): 21 µM
TGI (RPMI-8226 leukemia): 49.2 µM
GI50 (SK-MEL-28 melanoma): 24.3 µM
TGI (SK-MEL-28 melanoma): 55.3 µM
GI50 (SN12C renal): 17.1 µM
TGI (SN12C renal): 31.7 µM
GI50 (SW-620 colon): 16.7 µM
TGI (SW-620 colon): 32 µM
GI50 (TK-10 renal): 22.8 µM
TGI (TK-10 renal): 40.9 µM
GI50 (UO-31 renal): 19 µM
TGI (UO-31 renal): 39.7 µM

COc1ccc(/C=C/c2c(C(=O)/C=C/c3ccc(C(F)(F)F)cc3)c(C)nc3ccccc23)cc1
GI50 (MALME-3M melanoma): 1.71 µM
TGI (MALME-3M melanoma): 3.19 µM
GI50 (RPMI-8226 leukemia): 0.807 µM
TGI (RPMI-8226 leukemia): 7.65 µM
GI50 (SK-MEL-28 melanoma): 1.82 µM
TGI (SK-MEL-28 melanoma): 3.47 µM
GI50 (SN12C renal): 2.02 µM
TGI (SN12C renal): 5.66 µM
GI50 (SW-620 colon): 1.48 µM
TGI (SW-620 colon): 4.7 µM
GI50 (TK-10 renal): 2.56 µM
TGI (TK-10 renal): 4.38 µM
GI50 (UO-31 renal): 1.11 µM
TGI (UO-31 renal): 2.33 µM

COc1ccc(C2=Nc3ccccc3SC(C)C2)cc1OC (centres undefined)
TGI (MALME-3M melanoma): 42.8 µM
TGI (RPMI-8226 leukemia): 38.4 µM
TGI (SK-MEL-28 melanoma): 56.6 µM
TGI (SN12C renal): 42 µM
TGI (SW-620 colon): 18.6 µM
TGI (TK-10 renal): 79.4 µM
TGI (UO-31 renal): 32.4 µM

CS(=O)(=O)Nc1cccc(-c2ccc3ncnc(Nc4ccc(F)c(Cl)c4)c3c2)c1
GI50 (HOP-62 NSCLC): 1.81 µM
TGI (HOP-62 NSCLC): 4.2 µM
GI50 (MALME-3M melanoma): 1.97 µM
TGI (MALME-3M melanoma): 5.1 µM
GI50 (RPMI-8226 leukemia): 2.07 µM
TGI (RPMI-8226 leukemia): 7.59 µM
GI50 (SK-MEL-28 melanoma): 2.28 µM
TGI (SK-MEL-28 melanoma): 7.2 µM
GI50 (SN12C renal): 1.93 µM
TGI (SN12C renal): 6.59 µM
GI50 (TK-10 renal): 0.0801 µM
TGI (TK-10 renal): 2.26 µM
GI50 (UO-31 renal): 0.706 µM
TGI (UO-31 renal): 3.1 µM

CN(C)CCCn1c(=O)c2ccccc2c2cnc3[nH]ccc3c21
GI50 (HOP-62 NSCLC): 1.49 µM
TGI (HOP-62 NSCLC): 5.72 µM
GI50 (MALME-3M melanoma): 1.69 µM
TGI (MALME-3M melanoma): 4.55 µM
GI50 (RPMI-8226 leukemia): 2.23 µM
TGI (RPMI-8226 leukemia): 7.3 µM
GI50 (SK-MEL-28 melanoma): 2.23 µM
TGI (SK-MEL-28 melanoma): 5.18 µM
GI50 (SN12C renal): 2.17 µM
TGI (SN12C renal): 14.6 µM
GI50 (SW-620 colon): 0.529 µM
TGI (SW-620 colon): 3.66 µM

O=C(Nc1ccccc1I(=O)=O)C1CCCCC1
GI50 (MALME-3M melanoma): > 100 µM
TGI (MALME-3M melanoma): > 100 µM
GI50 (RPMI-8226 leukemia): > 100 µM
TGI (RPMI-8226 leukemia): > 100 µM
GI50 (SK-MEL-28 melanoma): > 100 µM
TGI (SK-MEL-28 melanoma): > 100 µM
GI50 (SN12C renal): > 100 µM
TGI (SN12C renal): > 100 µM
GI50 (SW-620 colon): > 100 µM
TGI (SW-620 colon): > 100 µM
GI50 (TK-10 renal): > 100 µM
TGI (TK-10 renal): > 100 µM
GI50 (UO-31 renal): > 100 µM
TGI (UO-31 renal): > 100 µM

COc1cc(/C=C/c2ccc(O)c(OC)c2)cc(OC)c1
TGI (HOP-62 NSCLC): > 100 µM
TGI (MALME-3M melanoma): > 100 µM
TGI (RPMI-8226 leukemia): > 100 µM
TGI (SK-MEL-28 melanoma): > 100 µM
TGI (SW-620 colon): > 100 µM
TGI (TK-10 renal): 68.3 µM
TGI (UO-31 renal): 66.2 µM

CCOC(=O)C(Cc1ccc(N(CCCl)CCCl)cc1)NC(=O)C(Cc1ccccc1)NC=O (centres undefined)
TGI (HOP-62 NSCLC): 0.388 µM
TGI (MALME-3M melanoma): 0.191 µM
TGI (RPMI-8226 leukemia): 0.355 µM
TGI (SN12C renal): 0.294 µM
TGI (SW-620 colon): 0.414 µM
TGI (TK-10 renal): 0.275 µM
TGI (UO-31 renal): 0.273 µM

Source: PubChem BioAssay (NCI)
